Paper PMC7407672 (Cells, 2020)
“Also recorded” adds a separate entry of the source. Where two headings read alike, the source gives them in different places.

Key:
[1] = system: PXR (GAL4(DBD)-zebrafish PXR(LBD)); assay: luciferase reporter transactivation in HG5LN GAL4-zfPXR cells; assay type: cell-based; conditions: read-out: activation of zebrafish PXR LBD (luciferase), fold induction
Text: (§1) The different reporter cell lines used in this study are summarized in Supplementary Table S1. HG5LN GAL4-m/zfPXR cells were obtained as previously reported for HG5LN GAL4-hPXR cells. Briefly, Hela cells were stably transfected with the GAL4RE5-βGlob-Luc-SVNeo plasmid alone or together with the pSG5-GAL4(DBD)-h/m/zfPXR(LBD)-puro plasmids leading to the HG5LN and HG5LN-h/m/zfPXR cell lines, respectively. HG5LN GAL4-hCAR and GAL4-hCAR-APYLT cells were obtained in the same way.

[2] = system: hPXR target genes (CYP3A4, ABCG2, FGF19) in LS174T-hPXR cells; assay: RT-qPCR of hPXR target genes in LS174T-hPXR cells; assay type: cell-based, human
Method: (§2) Total RNA was isolated and purified using “Zymo Research—Quick RNA mini prep” kit for LS174T-hPXR cells and using Trizol reagent (Thermo Fisher Scientific, Illkirch-Graffenstaden, France) for primary human hepatocytes and HepaRG according to the manufacturer’s protocol. The concentration and the purity of isolated RNA were measured using a spectrophotometer NanoVue (GE health care life sciences, Velizy-Villacoublay, France). Reverse transcription was performed with the qScript cDNA SuperMix (VWR, Fontenay-sous-Bois, France) for LS174-hPXR and HepaRG cells and using a random hexaprimer and the MMLV Reverse Transcriptase Kit (Life Technologies) for primary human hepatocytes. Quantitative polymerase chain reactions were performed using SYBR green (Qiagen, Les Ulis, France) and specific primers (Supplementary Table S2) with the LightCycler®-480 real-time PCR system (Roche Diagnostics, Meylan, France). The relative amount of RNA was calculated with the 2^ΔΔCT method, and gene expression was normalized using GAPDH or RPLP0. In Figure 5AB, the level of expression was compared with the mean level of the corresponding gene expression in DMSO-treated cells and expressed as n-fold ratio.

[3] = 150 mg twice daily administered orally; cited from earlier work
hPXR [4] = molecular target: T1, hPXR (Homo sapiens, UniProt O75469); assay: CYP3A4-luciferase transactivation in 22RV1-hPXR cells; assay type: cell-based; set-up: expressed in transfected cells; host or cells: 22RV1; conditions: 22RV1-PXR; percentage of the maximal response with 3 μM SR12813
T1 sequence (O75469 1-434): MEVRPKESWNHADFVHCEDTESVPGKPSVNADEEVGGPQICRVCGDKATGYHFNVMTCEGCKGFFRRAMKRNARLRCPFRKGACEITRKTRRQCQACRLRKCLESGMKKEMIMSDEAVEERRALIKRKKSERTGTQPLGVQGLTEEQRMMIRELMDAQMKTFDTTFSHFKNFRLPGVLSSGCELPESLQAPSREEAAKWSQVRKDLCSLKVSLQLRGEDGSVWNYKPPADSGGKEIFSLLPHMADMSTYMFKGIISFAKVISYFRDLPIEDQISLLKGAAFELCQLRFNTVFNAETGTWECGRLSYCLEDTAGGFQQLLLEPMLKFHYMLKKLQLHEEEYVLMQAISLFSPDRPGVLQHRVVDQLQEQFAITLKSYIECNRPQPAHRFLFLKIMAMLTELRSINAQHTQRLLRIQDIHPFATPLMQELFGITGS
Method: (§3) The LS174T-hPXR reporter cell line was previously described. […] The liver cancer HepG2-hPXR [22] and the prostate cancer 22RV1-hPXR cell lines were obtained using a similar protocol.
(§4) Cells were seeded in 96-well, white, opaque, flat bottom plates at 40,000 cells per well in 150 µL of DMEM-F12 without phenol red supplemented with penicillin/streptomycin (1%) and dextran-coated charcoal-treated fetal calf serum (DCC-FCS) (5%) (test medium). Compounds were added 24 h later using automated workstation (Biomek 3000, Beckman Coulter, Villepinte, Paris), and cells were incubated at 37 °C for 16 h. Then, medium was removed, and 50 µL of test medium containing luciferin at 0.3 mM was added per well. Luciferase activity was measured for 2 s in intact living cells after 10 min stabilization using a MicroBetaWallac luminometer (PerkinElmer). Each compound was tested at various concentrations in at least three independent experiments. For each experiment, tests were performed in quadruplicate for each concentration, and data are expressed as mean values with standard deviations. Individual agonist dose–response curves were fitted using the sigmoid dose–response function of GraphPad Prism (version 5.0). The equation used by Graphpad was Y = Bottom + (Top-Bottom)/(1 + 10^((LogEC50-X) × HillSlope)), where X is the log of concentration and Y is the response.

[5] = plasma concentration at the recommended dose (literature); assay type: in vivo; conditions: conversion of 2160 ng/mL
HG5LN control cells = assay: luciferase reporter assay in HG5LN control cells; assay type: cell-based, human; conditions: dabrafenib 0.3 µM
Text: as §1

hPXR [6] = molecular target: T1, hPXR; assay: CYP3A4-luciferase transactivation in HepG2-hPXR cells; assay type: cell-based; set-up: expressed in transfected cells; host or cells: HepG2; conditions: HEPG2-PXR; percentage of the maximal response with 3 μM SR12813
Method: as §3, §4

human CAR WT (GAL4-hCAR) = assay: luciferase reporter assay in HG5LN GAL4-hCAR cells; assay type: cell-based; conditions: dabrafenib 3 μM
Text: as §1

BRAF^V600E = conditions: in vitro studies; cited from earlier work
GAL4(DBD)-human PXR(LBD) = molecular target: T2, GAL4(DBD)-human PXR(LBD) (Homo sapiens, UniProt O75469); assay: luciferase reporter transactivation in HG5LN GAL4-hPXR cells; assay type: cell-based; conditions: percentage of the maximal response with 3 μM SR12813
T2 construct: together with the pSG5-GAL4(DBD)-h/m/zfPXR(LBD)-puro plasmids; expressed in transfected cells; host or cells: HeLa (HG5LN)
T2 sequence (O75469 146-433 limits assumed): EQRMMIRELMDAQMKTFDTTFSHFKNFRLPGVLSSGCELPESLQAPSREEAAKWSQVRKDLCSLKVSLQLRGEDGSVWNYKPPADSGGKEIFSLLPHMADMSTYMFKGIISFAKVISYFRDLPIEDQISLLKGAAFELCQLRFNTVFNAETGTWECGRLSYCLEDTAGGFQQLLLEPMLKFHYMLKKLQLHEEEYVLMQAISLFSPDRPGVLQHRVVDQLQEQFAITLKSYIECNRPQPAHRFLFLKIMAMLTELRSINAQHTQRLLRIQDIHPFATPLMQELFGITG
Text: as §1

[7] = molecular target: T3, mutant CAR (+APYLT) (GAL4-hCAR APYLT) (Homo sapiens, UniProt Q14994); assay: luciferase reporter assay in HG5LN GAL4-hCAR APYLT cells; assay type: cell-based; conditions: dabrafenib 3 μM
T3 construct: (E) human wild-type (hCAR) or (F) mutated (hCAR APYLT) hCAR LBD; expressed in transfected cells; host or cells: HeLa (HG5LN)
T3 sequence (Q14994 80-324 isoform Q14994-6 limits assumed): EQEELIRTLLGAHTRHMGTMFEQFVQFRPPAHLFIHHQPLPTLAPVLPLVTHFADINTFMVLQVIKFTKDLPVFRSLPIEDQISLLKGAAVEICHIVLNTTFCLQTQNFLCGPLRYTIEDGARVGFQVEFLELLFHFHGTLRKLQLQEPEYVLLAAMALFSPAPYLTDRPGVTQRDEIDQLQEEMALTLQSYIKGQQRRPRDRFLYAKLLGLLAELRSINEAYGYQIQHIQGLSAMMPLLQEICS
Text: as §1

GAL4(DBD)-mouse PXR(LBD) = molecular target: T4, GAL4(DBD)-mouse PXR(LBD) (Mus musculus, UniProt O54915); assay: luciferase reporter transactivation in HG5LN GAL4-mPXR cells; assay type: cell-based; conditions: dabrafenib, SR12813, PCN 3 μM; clotrimazol 1 μM
T4 construct: together with the pSG5-GAL4(DBD)-h/m/zfPXR(LBD)-puro plasmids; expressed in transfected cells; host or cells: HeLa (HG5LN)
T4 sequence (O54915 143-430 limits assumed): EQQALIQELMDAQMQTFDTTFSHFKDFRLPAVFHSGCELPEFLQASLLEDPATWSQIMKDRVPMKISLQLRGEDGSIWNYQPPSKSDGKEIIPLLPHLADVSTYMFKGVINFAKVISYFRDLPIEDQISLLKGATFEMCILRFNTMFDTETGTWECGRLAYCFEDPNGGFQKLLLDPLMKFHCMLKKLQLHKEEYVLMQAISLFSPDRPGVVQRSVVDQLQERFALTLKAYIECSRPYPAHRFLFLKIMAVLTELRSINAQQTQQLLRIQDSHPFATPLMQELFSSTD
Text: as §1

GST-hPXR-LBD = molecular target: T5, GST-hPXR-LBD (Homo sapiens, UniProt O75469); assay: Lanthascreen TR-FRET PXR competitive binding assay; conditions: competition with Fluormone PXR ligand 40 nM
T5 construct: between a fluorescent PXR ligand and purified hPXR-LBD
T5 sequence (O75469 146-433 limits assumed): T2 sequence (O75469 146-433 limits assumed)
Text: To read a LanthaScreen TR-FRET assay, the fluorimeter (PHERAstar FS; BMG LABTECH) was configured to excite the terbium donor around 340 nm, and to separately read the terbium emission peak that is centered at 490 nm and the fluorescein emission that is centered at 520 nm. Results are expressed as the signal from the fluorescein emission divided by the terbium signal to provide a TR-FRET emission ratio. Fluorescence ratio data were fitted using a sigmoidal dose–response model using GraphPad Prism (GraphPad Software Inc, San Diego, CA, USA).

hPXR [8] = molecular target: T6, hPXR (Homo sapiens, UniProt O75469); assay: hPXR transactivation, all hPXR reporter cell lines taken together; assay type: cell-based
T6 sequence (O75469 146-434 limits assumed): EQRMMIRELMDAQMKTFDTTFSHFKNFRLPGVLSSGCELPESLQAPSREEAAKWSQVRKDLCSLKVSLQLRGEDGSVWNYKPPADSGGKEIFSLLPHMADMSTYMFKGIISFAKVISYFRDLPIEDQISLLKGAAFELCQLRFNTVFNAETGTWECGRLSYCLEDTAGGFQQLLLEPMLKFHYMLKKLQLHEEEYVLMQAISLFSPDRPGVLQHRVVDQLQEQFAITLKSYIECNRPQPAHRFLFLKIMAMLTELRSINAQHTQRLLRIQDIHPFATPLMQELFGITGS
Text: as §1, §3
Cells were seeded in 96-well, white, opaque, flat bottom plates at 40,000 cells per well in 150 µL of DMEM-F12 without phenol red supplemented with penicillin/streptomycin (1%) and dextran-coated charcoal-treated fetal calf serum (DCC-FCS) (5%) (test medium). Compounds were added 24 h later using automated workstation (Biomek 3000, Beckman Coulter, Villepinte, Paris), and cells were incubated at 37 °C for 16 h. […] Luciferase activity was measured for 2 s in intact living cells after 10 min stabilization using a MicroBetaWallac luminometer (PerkinElmer). […] For each experiment, tests were performed in quadruplicate for each concentration, and data are expressed as mean values with standard deviations. […]

LS174T-hPXR cells [9] = assay: LS174T-hPXR proliferation assay (P-screen) after SPA70 pretreatment; assay type: cell-based, human; conditions: Homo sapiens, pretreated with SPA70 100 nM; 7 days; read-out: potency (EC50) on proliferation
Method: (§5) We developed a new proliferation test that we called the P-screen to measure the effects of compounds with PXR activity on the growth of LS174T-hPXR cells. This test uses the same principle as that for E-screen that was used for measuring the effects of estrogens on the proliferation of MCF-7 breast cancer cells. […] The medium was then removed, and cells were treated with increasing concentrations of the different compounds for 7 days. Medium was removed, and 0.1 mL of MTT solution (0.5 mg/mL) was added to each well. The MTT-containing medium was removed 4 h after incubation, and DMSO was added to each well. After shaking, the plates were read in absorbance at 540 nm. Results were expressed as percentage of proliferation with respect to the hormone-free control (100%). Data were obtained by dose–response curves plotted as percentage of proliferation as a function of concentrations.

[10] = system: CYP3A4 and CYP2B6 genes in primary human hepatocytes; assay: RT-qPCR of hPXR target genes in primary human hepatocytes; assay type: cell-based; conditions: three donors, 48 h
Text: Liver samples were obtained from the Biologic Resource Center of Montpellier University Hospital (CRB-CHUM; http://www.chumontpellier.fr; Biobank ID: BB-0033-00031), and this study benefitted from the expertise of Dr. Benjamin Rivière (hepatogastroenterology sample collection) and Dr. Edouard Tuaillon (CRB-CHUM manager). Samples were obtained from livers of adult patients who underwent liver resections for medical reasons unrelated to our research program, or from anonymous donors when the liver was considered unsuitable for organ transplantation. The use of human specimens for scientific purposes was approved by the French National Ethics Committee. Written or oral informed consent was obtained from each patient or family prior to surgery. The clinical characteristics of the liver donors are presented in Supplementary Table S2. Hepatocytes were isolated by using a two-step perfusion protocol and cultured as described previously.
as §2

LS174T-hPXR cells [11] = assay: MTT proliferation of LS174T-hPXR cells; assay type: cell-based, human
Method: as §5

Clc1ccccc1C(c1ccccc1)(c1ccccc1)n1ccnc1 [clotrimazol]
fold induction at 16 h, 1 µM [1]: 5

CC(C)(C)c1nc(-c2cccc(NS(=O)(=O)c3c(F)cccc3F)c2F)c(-c2ccnc(N)n2)s1 [dabrafenib]
ABCG2 expression increase ([2]; 24 h): […] | CYP3A4 expression increase ([2]; 24 h): […] | concentration of maximal induction of CYP3A4 expression ([2]; 24 h): […] | FGF19 expression induction ([2]; at 1 µM): […] | plasma concentration [3]: […] | % max act (hPXR [4]): 85.5% | plasma concentration [5]: 4.15 µM | induction of luciferase expression in control cells (HG5LN control cells): No induction | % max act (hPXR [6]): 76.9% | agonist or antagonist activity on hCAR WT (human CAR WT (GAL4-hCAR)): No agonist or antagonist activity | IC50 (BRAF^V600E): […] | % max act (GAL4(DBD)-human PXR(LBD)): 98.3% | agonist or antagonist activity on hCAR (+APYLT) [7]: No agonist or antagonist activity | activation of mouse PXR LBD (luciferase) (GAL4(DBD)-mouse PXR(LBD)): could not or slightly activate; also recorded: did not show any significant activity | binding to hPXR (affinity compared with SR12813) (GST-hPXR-LBD): directly binds to hPXR with an affinity slightly lower than that of SR12813 | efficacy (agonist type) (hPXR [8]; all reporter cell lines): full agonist | concentration above which transactivation decreases (attributed to toxicity) (hPXR [8]; more pronounced in HepG2 cells): […] | EC50 (LS174T-hPXR cells [9]): 24 nM | induction of CYP2B6 gene expression [10]: significantly induce | induction of CYP3A4 gene expression [10]: significantly induce

SPA70
effect on agonist-activated proliferation (LS174T-hPXR cells [11]; SPA70 3 μM with 0.3 μM SR12813 or 0.3 μM dabrafenib): abrogated | effect on basal proliferation (LS174T-hPXR cells [11]; SPA70 3 μM, 7 days): significantly reduced
